# Experimental data as given in patent publication US20110105608A1, “MODULATORS OF NUCLEAR RECEPTOR CO-REGULATORY PROTEIN BINDING” (NORTHEASTERN UNIVERSITY, priority 2008, published 2011).
# Where “and” joins values, the source holds several entries; their conditions need not be identical. Equal values may be shown once. Read-outs that look alike come from different tables or passages of the source.
# Assays:
# [1] = target: T1, interaction between ERα and the LXXLL2 peptide from the coactivator GRIP1 (Homo sapiens, UniProt P03372); assay: Mammalian two hybrid assay; type: cell-based; settings: FIG. 4; for Effect on the LXXLL-ER interaction: second assay, 5-40 μM
# T1 construct: expressed in transfected cells
# T1 sequence (P03372 1-595): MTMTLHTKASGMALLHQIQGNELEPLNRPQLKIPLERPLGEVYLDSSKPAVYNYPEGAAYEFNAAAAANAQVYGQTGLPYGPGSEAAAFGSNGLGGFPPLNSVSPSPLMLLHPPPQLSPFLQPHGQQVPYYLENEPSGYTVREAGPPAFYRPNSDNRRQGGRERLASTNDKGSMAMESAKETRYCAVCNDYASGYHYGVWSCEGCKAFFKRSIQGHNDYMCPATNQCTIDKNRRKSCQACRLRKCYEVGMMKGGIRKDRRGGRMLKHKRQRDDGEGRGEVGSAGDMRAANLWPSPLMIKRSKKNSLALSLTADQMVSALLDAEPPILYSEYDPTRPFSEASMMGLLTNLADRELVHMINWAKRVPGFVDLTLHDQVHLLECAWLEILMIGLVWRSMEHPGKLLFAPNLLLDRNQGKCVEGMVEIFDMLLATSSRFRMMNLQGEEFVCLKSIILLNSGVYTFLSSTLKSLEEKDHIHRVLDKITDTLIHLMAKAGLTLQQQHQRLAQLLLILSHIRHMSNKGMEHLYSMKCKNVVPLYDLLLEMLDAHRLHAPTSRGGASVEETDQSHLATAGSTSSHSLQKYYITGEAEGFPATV
# Description: The Mammalian Hybrid Assay used a similar procedure as described in Chang et al., Molec. & Cellul. Biol., (1999) 19:12 8226-8239 except the compounds shown in Table 1, supra, were used instead of phage-derived peptides.
# (§1) Human cervical cancer (HeLa) and hepatoma (HepG2) cells were cultured in minimum essential medium (Life Technologies, Inc.) supplemented with 10% fetal bovine serum (HyClone), 0.1 mM nonessential amino acids, and 1 mM sodium pyruvate (Life Technologies, Inc.) and maintained in a humidified 37° C. incubator with 5% CO2. For transient transfections, cells were split into 24-well plates 24 h before transfection. Lipofectin (Life Technologies, Inc.)-mediated transfection has been described in detail previously (27). A DNA-Lipofectin mixture containing a total of 3,000 ng of plasmid in each of triplicate samples was incubated with cells for 3 to 5 h, and transfection was stopped by replacing the transfection mix with fresh medium (minimal essential medium without phenol red) containing 10% charcoal-stripped serum. Receptor ligands were added to the cells 14 to 16 h before the assay. Luciferase and (3-galactosidase activities were measured. In mammalian two-hybrid assays, for a typical triplicate of transfection, 2,000 ng of 5×Gal4Luc3 reporter plasmid, 400 ng of receptor-VP16 fusion, 400 ng of pM (Gal4 DBD)-peptide fusion constructs, and 200 ng of normalization plasmid pCMVβgal were used. For ER transcription disruption assays, 1,600 ng of 3 XERE-TATA-Luc reporter, 200 ng of pCMVβgal, 400 ng of either pRST7ERα, pRST7ERβ, or other receptor mutant constructs, and 0 to 800 ng of pM-peptide fusion plasmids were used. The parent pM vector (Gal4DBD without peptide fusion) was used in these experiments to balance the amount of input DNA in transfections. All transfections were performed at least three times.
# The mammalian two hybrid assay assessed whether the compounds disrupt the interaction between ERα and an LXXLL peptide derived from an ER coactivator (GRIP1). OH-tam is an ERα antagonist and was used as a positive control.
# (§2) A second assay with another group of compounds was performed to determine the proper dose for use in cell culture. Compounds were used at concentrations between 5-40 μM. The mammalian two hybrid assay was used to examine the interaction between ERα and the LXXLL2 peptide from the coactivator GRIP1. #82 and OH-tam were used as controls.
# [2] = tested on: cells; assay: Toxicity to cells seen in the mammalian two hybrid dose-finding assay; type: cell-based, Human; settings: FIG. 4; 5-40 μM in cell culture
# Description: as §1, §2
# AW78 was also effective. […] AW77 was very toxic to cells at the high concentrations tested.
# [3] = target: T2, endogenous ERα in MCF7 cells (Homo sapiens, UniProt P03372); assay: RBA assay, competition with 3H-estradiol in MCF7 cells; type: binding; settings: 1 nM 3H-estradiol
# T2 construct: the endogenous ERα in MCF7 cells; endogenous in cells; host or cells: MCF7 breast cancer cells
# T2 sequence (P03372 1-595): T1 sequence (P03372 1-595)
# Description: The RBA assay was performed to examine the ability of the compounds to compete for the binding of 1 nM of 3H-estradiol to the endogenous ERα in MCF7 cells.
# [4] = target: T3, purified full-length human ERα (Homo sapiens, UniProt P03372); assay: Estrogen receptor relative binding affinity assay, competitive radiometric, [3H]estradiol tracer; settings: RBA of estradiol set to 100%, 18-24 h at 0° C.
# T3 construct: purified full-length human ERα and ERβ were purchased from PanVera/Invitrogen; purchased PanVera/Invitrogen (Carlsbad, Calif.)
# T3 sequence (P03372 1-595): T1 sequence (P03372 1-595)
# Description: (§3) Relative binding affinity assays were run to determine whether the compounds of this disclosure are traditional ligands that compete with estradiol. […]; purified full-length human ERα and ERβ were purchased from PanVera/Invitrogen (Carlsbad, Calif.). Incubations were conducted for 18-24 h at 0° C. Hydroxyapatite (BioRad, Hercules, Calif.) was used to absorb the receptor-ligand complexes, and free ligand was washed away. The binding affinities are expressed as relative binding affinity (RBA) values with the RBA of estradiol set to 100%. […]
# [5] = target: T4, purified full-length human ERβ (Homo sapiens, UniProt Q92731); assay: as above; settings: RBA of estradiol set to 100%, 18-24 h at 0° C.
# T4 construct: purified full-length human ERα and ERβ were purchased from PanVera/Invitrogen; purchased PanVera/Invitrogen (Carlsbad, Calif.)
# T4 sequence (Q92731 whole entry): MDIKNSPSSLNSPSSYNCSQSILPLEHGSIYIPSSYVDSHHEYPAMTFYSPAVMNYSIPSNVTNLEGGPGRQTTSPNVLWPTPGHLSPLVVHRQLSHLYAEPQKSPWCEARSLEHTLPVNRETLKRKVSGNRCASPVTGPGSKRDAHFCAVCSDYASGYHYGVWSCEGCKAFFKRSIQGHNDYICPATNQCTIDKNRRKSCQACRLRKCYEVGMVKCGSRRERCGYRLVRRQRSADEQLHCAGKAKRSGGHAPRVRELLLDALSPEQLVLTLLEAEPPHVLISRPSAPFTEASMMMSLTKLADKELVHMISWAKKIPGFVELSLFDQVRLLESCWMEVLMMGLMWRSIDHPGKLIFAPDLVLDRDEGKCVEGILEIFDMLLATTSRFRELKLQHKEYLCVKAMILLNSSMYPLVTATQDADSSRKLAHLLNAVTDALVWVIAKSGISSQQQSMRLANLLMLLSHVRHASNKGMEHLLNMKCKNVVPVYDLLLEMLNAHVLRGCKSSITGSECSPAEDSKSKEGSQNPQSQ
# Description: as §3
# [6] = target: T5, full-length ER alpha (Homo sapiens, UniProt P03372); assay: Cell-based luciferase reporter gene assay (2ERE Luc) in HEC-1 cells; settings: * = very small dynamic range compared to positive control
# T5 construct: 100 ng of full-length ER alpha expression vector; expressed in transfected cells; host or cells: HEC-1 (human endometrial cancer) cells
# T5 sequence (P03372 1-595): T1 sequence (P03372 1-595)
# Excerpt: (§4) The protocols for both the time-resolved fluorescence resonance energy transfer (TR-FRET) assay and the cell-based reporter gene assay can be found in Parent, et al. (2008) J. Med. Chem. 51(20):6512-30. A 15-mer SRC1-Box II peptide and a published guanylhydrazone CBI (Lafrate et al., (2008) Bioorg. Med. Chem. 2008:16(23)) were used as positive controls in the TR-FRET and reporter gene assays, respectively.
# Human endometrial cancer (HEC-1) cells were maintained in culture and transfected in 24 well plates. HBSS (50 μL/well), Holo-transferrin (Sigma T1408) (20 μL/well), and lipofectin (Invitrogen no. 18292-011) (5 μL/well) were incubated together at RT for 5 min. A DNA mixture containing 200 ng of pCMVβ-galactosidase as an internal control, 500 ng of the estrogen responsive reporter gene plasmid 2ERE Luc, and 100 ng of full-length ER alpha expression vector with 75 μL of HBSS per well was added to the first mixture and allowed to incubate for 20 min at RT. After changing the cell media to Opti-MEM (350 μL/well), 150 μL of the transfection mixture was added to each well. The cells were incubated at 37° C. in a 5% CO2 containing incubator for 6 h before the medium was replaced with fresh medium containing 5% charcoal-dextran-treated calf serum and the desired concentrations of ligands. Luciferase reporter gene activity was assayed 24 h after ligand addition.
# In the initial screen, compounds were assayed in a dose-response format at concentrations ranging from 20 μM to 0.6 μM; […]. Upon validation of antagonistic activity, mechanism of action was examined by repeating the compound titration in the presence of both 10^-7 and 10^-9 M E2 with an expectation that changing the concentration of E2 100-fold would not change the IC50 of true coactivator binding inhibitors. These assays was also repeated to confirm results. The positive control is a guanyl hydrazone.
# [7] = target: T6, ERα-417 / SRC-3-NRD (Homo sapiens, UniProt P03372, C381S/C530S); assay: In vitro coactivator binding inhibitor TR-FRET CBI assay (displacement of SRC3); settings: * = very small dynamic range compared to positive control
# T6 sequence (P03372 304-554 C381S/C530S limits assumed): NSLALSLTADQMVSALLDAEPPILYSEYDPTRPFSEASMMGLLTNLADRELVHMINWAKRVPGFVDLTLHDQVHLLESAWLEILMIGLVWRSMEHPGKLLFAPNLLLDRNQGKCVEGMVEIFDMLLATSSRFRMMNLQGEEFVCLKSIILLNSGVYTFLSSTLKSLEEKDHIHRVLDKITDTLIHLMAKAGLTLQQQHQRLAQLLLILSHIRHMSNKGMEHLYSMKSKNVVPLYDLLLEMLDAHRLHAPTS
# Excerpt: as §4
# Purified ERα-417, labeled site-specifically with maleimide-biotin (Quanta BioDesign) and SRC-3-NRD, labeled nonspecifically through cysteine residues with iodoacetamide-fluorescein (Invitrogen), were used in the TR-FRET assays. […]. In a second 96-well Nunc polypropylene plate (Nalge Nunc International, Rochester, N.Y.), a 0.02 M solution of each coactivator binding inhibitor was serially diluted in a 1:10 fashion into DMF. Each concentration of coactivator binding inhibitor or vehicle was then diluted 1:10 into TR-FRET buffer, and 10 μL of this solution was added to the stock […] solution in the 96-well plate. After a 20 min incubation, 5 μL of 200 nM fluorescein-SRC-3-NRD was added to each well. This mixture was allowed to incubate for 1 h at RT in the dark. TR-FRET was measured using an excitation filter at 340/10 nm and emission filters for terbium and fluorescein at 495/20 and 520/25 nm, respectively. […].
# The results are shown in FIGS. 1A and 1b and show the displacement of the SRC3. The peptide control has an IC50 of about 1 uM.
# [8] = HEC-1 cells, in the presence of estradiol, read-out: Reporter Gene IC50
# [9] = estradiol 1 μM, read-out: TR-FRET IC50
# [10] = repeat run, read-out: TR-FRET Repeat
# [11] = repeat run, read-out: Reporter Gene IC50 (μM) - repeat
compound,measurement,setting,value
CCOC(=O)COc1ccc(-c2ccc(O)c(C(C)(C)C)c2)cc1C(C)(C)C [AW-73],Effect on the LXXLL-ER interaction,[1],induced LXXLL-ER interaction
CCOC(=O)COc1ccc(-c2ccc(O)c(C(C)CC)c2)cc1C(C)CC (stereo not drawn) [AW-78],Effect on the LXXLL-ER interaction,[1],effective
CCOC(=O)COc1ccc(-c2ccc(OCCN(C)C)c(C(C)CC)c2)cc1C(C)CC (stereo not drawn) [AW-79],Toxicity to cells,[2],toxic at a high dose
same,Effect on the LXXLL-ER interaction,[1],induced LXXLL-ER interaction
CN(C)CCOc1ccc(-c2ccc(OCC(=O)O)c(C(C)(C)C)c2)cc1C(C)(C)C [AW-82],Competition for the binding of 3H-estradiol,[3],competed
same,ERα RBA,[4]; listed as AW-III-82-56,0.055% and 0.038% and 0.049 ± 0.016%
same,ERβ RBA,[5]; listed as AW-III-82-56,0.018% and 0.017% and 0.018 ± 0.001%
same,IC50,[6]; [8],6 µM
CCOC(=O)COc1ccc(-c2ccc(O)cc2)cc1 [AW-84],Effect on the LXXLL-ER interaction,[1],induced LXXLL-ER interaction
CCC(C)c1cc(-c2ccc(OCC(=O)O)c(C(C)CC)c2)ccc1OCCN(C)C (stereo not drawn) [AW-87],IC50,[7]; [9],87 µM
same,IC50,[7]; [10],227 µM
same,ERα RBA,[4],~0.001%
same,ERβ RBA,[5],~0.001%
same,IC50,[6]; [8],1.8 µM
same,IC50,[6]; [11],6 µM
CCOC(=O)COc1ccc(-c2ccc(O)c(C(C)C)c2)cc1C(C)C [PW-74],Toxicity to cells,[2],no significant toxicity
same,Concentration at which the ERα-LXXLL2 interaction is inhibited,[1]; tested at 5-40 μM,about 40 μM
CCOC(=O)COc1ccc(-c2ccc(OCCN(C)C)c(C(C)C)c2)cc1C(C)C [PW-76],Effect on the LXXLL-ER interaction,[1],induced LXXLL-ER interaction
CCOC(=O)COc1ccc(-c2ccc(O)c(Cc3ccccc3)c2)cc1Cc1ccccc1 [PW-77],Toxicity to cells,[2],very toxic
CCOC(=O)COc1ccc(-c2ccc(OCCN(C)C)c(Cc3ccccc3)c2)cc1Cc1ccccc1 [PW-78],Effect on the LXXLL-ER interaction,[1],induced LXXLL-ER interaction
CC(C)c1cc(-c2ccc(OCC(=O)O)c(C(C)C)c2)ccc1OCCN(C)C [PW-80],IC50,[7]; [9],55 µM
same,IC50,[7]; [10],583 µM
same,ERα RBA,[4],<0.001%
same,ERβ RBA,[5],<0.001%
same,IC50,[6]; [8],21 µM
CN(C)CCOc1ccc(-c2ccc(OCC(=O)O)c(Cc3ccccc3)c2)cc1Cc1ccccc1 [PW-81],IC50,[7]; [9],163 µM
same,IC50,[7]; [10],1100 µM
same,Competition for the binding of 3H-estradiol,[3],did not compete
same,ERα RBA,[4],<0.001%
same,ERβ RBA,[5],~0.001%
same,IC50,[6]; [8],13 µM
CCOC(=O)COc1ccc(-c2ccc(OCCN(C)C)cc2)cc1 [PW-82],Effect on the LXXLL-ER interaction,[1],induced LXXLL-ER interaction
CN(C)CCOc1ccc(-c2ccc(OCC(=O)O)cc2)cc1 [PW-83],IC50,[7]; [9],205 µM
same,IC50,[7]; [10],2050 µM
same,Competition for the binding of 3H-estradiol,[3],competed
same,ERα RBA,[4],<0.001%
same,ERβ RBA,[5],<0.001%
same,IC50,[6]; [8],5.8 µM
same,IC50,[6]; [11],18 µM
